The values that follow come from patent US10287279B2, “Inhibitors of human 12/15-lipoxygenase” (THE GENERAL HOSPITAL CORPORATION, priority 2013, dated 2019).

“Also recorded” adds a separate entry of the source. Where two headings read alike, the source gives them in different places.

A short description of series [1]: Caco-2 permeability. As to conditions: human. (In general: Passage across Caco-2 layers is used to estimate intestinal permeability.)
The target of series [2] is human platelet 12-lipoxygenase (12-LOX) (Homo sapiens (Human), UniProt P18054). In words: Lipoxygenase UV-Vis assay, 12-LOX. Conditions: selectivity profiling. Type of series: biochemical. As to the method:
(§1) Human 5-lipoxygenase (5-LOX) was expressed as a non-tagged protein and used as a crude ammonium sulfate protein fraction, as published previously.^77
(§2) The inhibitor compounds were screened initially using one concentration point on a Perkin-Elmer Lambda 40 UV-Vis spectrometer. […] The reactions were initiated by adding either of ˜40 nM 12-LOX, 40 nM 12/15-LOX, 0.5 μM 15-LOX-2 or ˜200 nM 5-LOX (ammonium sulfate suspension) to a cuvette with a 2 mL reaction buffer constantly stirred using a magnetic stir bar at room temperature (22° C.). […] Inhibitors were stored at −20° C. in DMSO.

Series [3] concerns mouse hippocampal HT22 cells. In words: HT22 cell culture assay, glutamate-induced cell death (LDH release). Type of series: cell-based. As to conditions: for protection against oxidative glutamate toxicity in HT22 cells: 5 mM glutamate, increasing amounts or concentration not stated. The text has this: Glutamate-induced oxidative stress^67-69 leads to time-dependent cell death mediated by 12/15-LOX in both immature primary neurons and mouse hippocampal HT22 cells.^38,46,70 Primary neurons require a lengthy isolation procedure and also show relatively modest increases in cell death in this assay, indicating they are not suited for a high-throughput testing approach. In contrast, HT22 cells grow quickly and consistently feature low cell death under control conditions, but a majority of cells die after glutamate treatment (50-100%). This assay can be adapted to 96-well plates, allowing for moderate to high throughput against the screened compounds. The characteristic Z′ score used to evaluate the technical quality and suitability as screening tool averaged 0.77 over ten experiments (SD=0.13; range, 0.49-0.94), where values above 0.5 indicate an excellent assay.^71
Treatment consisted of exchanging the medium to 100 μl fresh culturing medium and adding 5 mM glutamate (stock solution 0.5 M in PBS) in the presence or absence of DMSO (maximum 0.1% final concentration) as control or the indicated concentrations of 1. […] Three independent experiments were evaluated. […] The eicosanoids containing fractions were transferred to scintillation vials followed by addition of perdeuterated 13-HODE (13-d31-HODE), as an internal control for extraction and 1.5% glacial acetic acid for protein precipitation. […] The dry samples were then re-constituted in methanol and an internal control 12-deuterated (d8)-HETE (12-d8-HETE), was added to each sample for detector response variation and it was assumed that the change in detector response for 12-HETE and 12-d8-HETE would be similar. […] The Collision Induced Dissociation (CID) was used for MS-MS with collision energy of 35 eV.
On the technique in general: LDH leaks from cells whose membrane has failed.

Series [4] is described as follows: Microsomal stability, rat liver microsomes. Conditions: absence of NADPH; 1 hr period; species not distinguished.
The subject of series [5] is warfarin-pretreated mice subjected to transient focal ischemia. In words: Warfarin-associated hemorrhage following experimental stroke (transient focal ischemia). Type of series: in vivo, mouse. As for the experimental part: A) In warfarin-pretreated mice subjected to transient focal ischemia with 3 h occlusion, 50 mg/kg ML351 was administered by i.p. injection 3 h after onset of ischemia (FIG. 9A). This mimics the situation of a patient on warfarin who experiences a severe stroke with hemorrhagic transformation.
B) To investigate if administering tPA to patients with an ischemic stroke who are on warfarin can be made safe, warfarin-pretreated mice were subjected to 2 h of transient focal ischemia, then treated with tPA 4 h after onset of ischemia, and administered 50 mg/kg ML351 by i.p. injection concurrently with tPA.

The nature of series [6]: Mouse plasma stability.
Series [7] in a line: Aqueous kinetic solubility. As to conditions: PBS buffer (pH 7.4).
Series [8] can be described thus: In vivo PK (mouse) at 30 mpk IP.
A short description of series [9]: Stability in aqueous solutions. Conditions: pH 2, pH 7.4, pH 9.
Series [10] in a line: PAMPA permeability. A general note: PAMPA measures passive passage across an artificial lipid membrane.
In series [11] the test system is filament model of transient focal ischemia. In words: Filament model of transient focal ischemia. Type of series: in vivo, mouse. Conditions: 90 minutes ischemia, sacrifice at 24 hours.
For series [12], the system named is mouse distal MCAO model of permanent focal ischemia. More on the design: species or system C57B16J mice. As to conditions: in vivo.
Procedure: To study 1 in a model of distal middle cerebral artery occlusion (distal MCAO), ^74 C57B16J mice were treated with ferric chloride (FeCl3) to cause occlusion of the distal middle cerebral artery. […] The body temperature was monitored by a rectal probe and maintained at 37±0.3° C. by a homoeothermic blanket control unit. Briefly, mice were placed in a stereotaxic frame, the scalp was opened and right temporal muscle was dissected. The area between zygomatic arch and squamous bone was thinned by a high-speed drill and cooled with saline. The trace of MCA was visualized and thin bony film was lifted up by forceps. After that a laser-Doppler flowmetry probe was placed 2 mm posterior, 6 mm lateral to the bregma to monitor the regional cerebral blood flow (rCBF). After obtaining a stable epoch of the pre-ischemic rCBF, a piece of 10% FeCl3 saturated filter paper was placed over the intact dura mater along the trace of MCA and the rCBF was continuously monitored during the next 3 hours. After 2 hours of ischemia, either 50 mg/kg 1, or DMSO vehicle was injected intraperitoneally. Following sacrifice at 24 hours, brains were sectioned into 1 mm slices, and infarct sizes were determined by staining with 2,3,5-triphenyltetrazolium chloride (TTC), using the indirect method (infarct volume=contralateral volume minus uninfarcted ipsilateral volume). […]
The target of series [13] is human reticulocyte 15-lipoxygenase-1 (12/15-LOX) (Homo sapiens (Human), UniProt P16050). In words: Lipoxygenase UV-Vis cuvette-based assay, 12/15-LOX. Type of series: biochemical. Conditions: for 12/15-LOX inhibition in words: SAR discussion, human 12/15-LOX. As for the experimental part: as §1, §2
For series [14], the target named is Human 5-lipoxygenase (5-LOX) (Homo sapiens (Human), UniProt P09917). In words: Lipoxygenase UV-Vis assay, 5-LOX. Type of series: biochemical. As to conditions: selectivity profiling. As to the method:
as §1, §2

The target in series [15] is human epithelial 15-lipoxygenase-2 (15-LOX-2) (Homo sapiens (Human), UniProt O15296). The series is described as follows: Lipoxygenase UV-Vis assay, 15-LOX-2. Type of series: biochemical. As to conditions: selectivity profiling. As to the method: as §1, §2
The mark [16] stands for this setting: male, CD1, mouse, brain, ip, 30 mg/kg.
The mark [17] stands for this setting: male, CD1, mouse, plasma, ip, 30 mg/kg.
Where [18] appears, read: UV-Vis cuvette-based assay in triplicate, 10 μM AA, read-out: IC50 (μM) [±SD (μM)].

Sequence of human platelet 12-lipoxygenase (12-LOX) (P18054 whole entry): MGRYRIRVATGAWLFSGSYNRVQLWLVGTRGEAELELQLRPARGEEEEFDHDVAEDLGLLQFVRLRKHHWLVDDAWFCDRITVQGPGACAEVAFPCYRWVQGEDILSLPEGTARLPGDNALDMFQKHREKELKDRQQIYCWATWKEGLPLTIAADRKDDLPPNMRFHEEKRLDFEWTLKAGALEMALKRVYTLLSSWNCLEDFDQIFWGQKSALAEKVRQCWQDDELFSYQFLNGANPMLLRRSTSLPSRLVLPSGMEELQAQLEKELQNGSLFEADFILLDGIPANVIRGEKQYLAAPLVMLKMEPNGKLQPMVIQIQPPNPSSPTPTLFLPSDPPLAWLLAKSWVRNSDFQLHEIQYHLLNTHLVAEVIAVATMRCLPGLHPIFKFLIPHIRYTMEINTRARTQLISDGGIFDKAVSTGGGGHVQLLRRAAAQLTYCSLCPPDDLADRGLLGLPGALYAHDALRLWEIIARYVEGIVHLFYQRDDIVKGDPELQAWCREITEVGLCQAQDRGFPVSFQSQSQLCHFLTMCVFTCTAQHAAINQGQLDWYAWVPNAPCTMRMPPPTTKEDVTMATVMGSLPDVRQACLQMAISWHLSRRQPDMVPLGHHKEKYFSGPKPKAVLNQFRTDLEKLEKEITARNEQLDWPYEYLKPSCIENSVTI
Sequence of human reticulocyte 15-lipoxygenase-1 (12/15-LOX) (P16050 whole entry): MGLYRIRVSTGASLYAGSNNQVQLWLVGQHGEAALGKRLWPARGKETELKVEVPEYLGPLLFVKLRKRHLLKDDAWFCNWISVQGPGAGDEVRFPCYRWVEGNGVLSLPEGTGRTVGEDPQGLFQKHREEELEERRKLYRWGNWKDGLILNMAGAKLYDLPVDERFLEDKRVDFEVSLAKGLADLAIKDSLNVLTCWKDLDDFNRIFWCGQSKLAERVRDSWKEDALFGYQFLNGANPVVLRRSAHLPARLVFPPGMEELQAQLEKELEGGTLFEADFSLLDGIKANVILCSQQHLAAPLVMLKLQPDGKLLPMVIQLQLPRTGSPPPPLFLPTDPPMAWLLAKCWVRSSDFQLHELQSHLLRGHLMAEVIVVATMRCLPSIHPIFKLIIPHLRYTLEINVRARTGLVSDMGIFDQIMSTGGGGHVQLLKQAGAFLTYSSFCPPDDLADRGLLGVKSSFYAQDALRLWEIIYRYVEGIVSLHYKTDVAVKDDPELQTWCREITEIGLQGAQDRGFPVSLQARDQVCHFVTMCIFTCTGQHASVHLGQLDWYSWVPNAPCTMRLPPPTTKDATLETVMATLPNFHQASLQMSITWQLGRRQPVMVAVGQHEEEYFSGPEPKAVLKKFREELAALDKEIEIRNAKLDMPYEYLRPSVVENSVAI
Sequence of Human 5-lipoxygenase (5-LOX) (P09917 whole entry): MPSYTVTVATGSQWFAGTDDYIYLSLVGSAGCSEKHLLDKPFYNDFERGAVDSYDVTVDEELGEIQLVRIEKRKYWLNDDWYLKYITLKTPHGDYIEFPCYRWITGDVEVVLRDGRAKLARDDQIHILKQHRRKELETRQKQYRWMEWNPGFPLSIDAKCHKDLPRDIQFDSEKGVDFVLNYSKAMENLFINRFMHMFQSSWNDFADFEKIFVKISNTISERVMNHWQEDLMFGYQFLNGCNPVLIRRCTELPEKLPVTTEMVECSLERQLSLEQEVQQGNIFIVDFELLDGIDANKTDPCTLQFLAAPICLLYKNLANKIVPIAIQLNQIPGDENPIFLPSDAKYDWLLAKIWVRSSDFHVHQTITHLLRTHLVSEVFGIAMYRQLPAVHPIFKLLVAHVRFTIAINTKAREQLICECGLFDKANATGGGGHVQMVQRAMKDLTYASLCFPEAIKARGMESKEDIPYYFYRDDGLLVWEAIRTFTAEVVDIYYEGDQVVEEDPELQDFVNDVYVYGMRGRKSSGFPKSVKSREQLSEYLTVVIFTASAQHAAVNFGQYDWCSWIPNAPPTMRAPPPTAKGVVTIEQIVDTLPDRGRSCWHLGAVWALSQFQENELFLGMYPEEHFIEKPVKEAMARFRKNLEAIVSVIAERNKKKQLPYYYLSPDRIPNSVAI
Sequence of human epithelial 15-lipoxygenase-2 (15-LOX-2) (O15296 whole entry): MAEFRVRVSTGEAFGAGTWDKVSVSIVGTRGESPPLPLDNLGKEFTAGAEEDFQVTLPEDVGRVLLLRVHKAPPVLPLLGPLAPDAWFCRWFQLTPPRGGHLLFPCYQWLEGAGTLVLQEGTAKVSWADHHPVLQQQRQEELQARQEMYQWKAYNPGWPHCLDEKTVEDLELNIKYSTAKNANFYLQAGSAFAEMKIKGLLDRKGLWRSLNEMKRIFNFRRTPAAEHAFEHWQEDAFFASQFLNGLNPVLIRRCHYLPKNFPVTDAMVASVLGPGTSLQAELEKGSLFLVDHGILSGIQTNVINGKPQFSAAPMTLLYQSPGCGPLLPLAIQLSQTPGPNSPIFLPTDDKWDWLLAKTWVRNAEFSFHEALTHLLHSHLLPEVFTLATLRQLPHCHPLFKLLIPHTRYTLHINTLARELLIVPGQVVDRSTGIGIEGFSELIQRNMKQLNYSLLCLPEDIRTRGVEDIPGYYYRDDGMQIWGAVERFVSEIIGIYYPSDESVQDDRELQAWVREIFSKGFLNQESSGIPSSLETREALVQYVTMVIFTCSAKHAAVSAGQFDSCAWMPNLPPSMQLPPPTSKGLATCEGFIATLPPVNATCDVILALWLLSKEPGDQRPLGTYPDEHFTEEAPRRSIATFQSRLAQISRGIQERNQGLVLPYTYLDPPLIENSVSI

Consider `CNc1oc(-c2cccc3ccccc23)nc1C#N` [Compound 1, 5-(Methylamino)-2-(naphthalen-1-yl)oxazole-4-carbonitrile], for which the apparent permeability coefficient (Papp) (usually a coefficient for how fast a substance crosses the barrier) in series [1] was 1.5 ×10⁻⁶ cm/s. Also, the 50% inhibitory concentration (IC50) (usually the concentration that gives 50% inhibition) in series [2] was over 100 µM. For the same compound, in series [3] (5 μM concentration), the “cellular protection in HT22 cells” value is listed as “cellular protection”. Also, the “protection against oxidative glutamate toxicity in HT22 cells” value in [3] was “protective against oxidative glutamate toxicity; also recorded: dose-dependent protection”. Further, the “microsomal stability without NADPH” value in [4] is recorded as “no degradation”. In addition, the “hemorrhage in the ischemic hemisphere of warfarin-treated mice treated with tPA” value in series [5] (2 h ischemia, tPA 4 h after onset, 50 mg/kg i.p. concurrently with tPA) is “significantly reduced”. In addition, the “hemorrhage in the ischemic hemisphere of warfarin-treated mice” value in [5] (3 h occlusion, 50 mg/kg i.p. 3 h after onset of ischemia) is “significantly reduced”. Further, the “Mouse Plasma Stability remaining at 2 hours” value in series [6] was 100%. The “Kinetic Solubility” value in series [7] came to 1.2 µM. For the same compound, the AUC(0-inf) (commonly the area under the concentration-time curve extrapolated to infinity) in [8] (setting [16]) was 35.5 µM·h; in [8] (setting [17]) it was 13 µM·h. Further, the Tmax (commonly the time from dosing to the highest level) was 30 min in series [8] (setting [16]) and 15 min in series [8] (setting [17]). Further, the half-life (commonly how long it takes for the measured level to halve) in series [8] (male, CD1, mouse, brain, ip, 30 mg/kg, T1/2 (Brain), mouse, 30 mpk IP) is about 60 min; in series [8] (male, CD1, mouse, plasma, ip, 30 mg/kg, T1/2 (Plasma), mouse, 30 mpk IP), about 60 min. For the same compound, the concentration in series [8] (setting [17]) peaked (Cmax) at 13.8 µM. Also, the “Cmax (Brain)” value in [8] (mouse, 30 mpk IP, brain) is 28.8 µM. Moreover, the “stability in aqueous solutions” value in series [9] is given as “stable”. Further, the “Permeability (PAMPA)” value in series [10] is recorded as 723 10^−6 cm/s. Besides, the entries for the “infarct size, transient focal ischemia” value in series [11] (10 mg/kg), in series [11] (25 mg/kg) and in series [11] (50 mg/kg) were “did not change the infarct”, “significantly protective” and “significantly protective”, respectively. Moreover, the “infarct size, permanent focal ischemia” value in series [12] is “significantly reduced infarct size”.

`CNc1oc(-c2ccc3ccccc3c2)nc1C#N` [Compound 2, 5-(Methylamino)-2-(naphthalen-2-yl)oxazole-4-carbonitrile] yielded an IC50 in series [13] of over 30 µM.

On to `CNc1oc(-c2cccc3cnccc23)nc1C#N` [Compound 3, 2-(Isoquinolin-5-yl)-5-(methylamino)oxazole-4-carbonitrile], for which the concentration for half-maximal inhibition (IC50) in [13] (setting [18]) was over 30 µM.

Take `CNc1oc(-c2cccc3nccnc23)nc1C#N` [Compound 6, 5-(Methylamino)-2-(quinoxalin-5-yl)oxazole-4-carbonitrile]: the IC50 in [13] (setting [18]) was over 40 µM.

As to `CNc1oc(-c2cccc(Cl)c2Cl)nc1C#N` [Compound 7, 2-(2,3-Dichlorophenyl)-5-(methylamino)oxazole-4-carbonitrile], the IC50 in [14] is over 100 µM. In [3] (concentration of 10 μM), the “protection against glutamate-induced cell death in HT22 cells” value was “some protection”.

As to `CNc1oc(-c2ccc(Cl)c(Cl)c2)nc1C#N` [Compound 8, 2-(3,4-Dichlorophenyl)-5-(methylamino)oxazole-4-carbonitrile], the “protection against glutamate-induced cell death in HT22 cells” value in series [3] (concentrations of 2 to 10) is reported as “dose-dependent cell protective effect”.

In the case of `CNc1oc(-c2ccc3c(c2)OCCO3)nc1C#N` [Compound 9, 2-(2,3-Dihydrobenzo[b][1,4]dioxin-6-yl)-5-(methylamino)oxazole-4-carbonitrile], the IC50 in series [13] (setting [18]) was over 40 µM.

For `CNc1oc(-c2ccc(-c3ccccc3)cc2)nc1C#N` [Compound 11, 2-([1,1′-Biphenyl]-4-yl)-5-(methylamino)oxazole-4-carbonitrile], in series [3], the “protection against oxidative glutamate toxicity in HT22 cells” value was “protected HT22 cells against oxidative stress”. Further, the “12/15-LOX inhibition in words” value in [13] was “did not inhibit human 12/15-LOX”.

As to `CNc1oc(-c2ccc3cc[nH]c3c2)nc1C#N` [Compound 13, 2-(1H-indol-6-yl)-5-(methylamino)oxazole-4-carbonitrile], in series [13], the half-maximal inhibitory concentration (IC50) was over 40 µM.

For the compound `CC(C)Nc1oc(-c2cccc3ccccc23)nc1C#N` [Compound 26, 5-(Isopropylamino)-2-(naphthalen-1-yl)oxazole-4-carbonitrile], in series [13], the “12/15-LOX inhibition in words” value is recorded as “significantly reduced the potency”.

For the compound `N#Cc1nc(-c2cccc3ccccc23)oc1NC1CNC1` [Compound 31, 5-(Azetidin-3-ylamino)-2-(naphthalen-1-yl)oxazole-4-carbonitrile], the “protection against oxidative glutamate toxicity in HT22 cells” value in [3] is on record as “protected HT22 cells against oxidative stress”. Moreover, the “12/15-LOX inhibition in words” value in series [13] is reported as “did not inhibit human 12/15-LOX”.

Consider `CNc1sc(-c2cccc3ccccc23)nc1C#N` [Compound 32, 5-(methylamino)-2-(naphthalen-1-yl)thiazole-4-carbonitrile], for which the concentration for half-maximal inhibition (IC50) in series [2] is over 40 µM; in series [15] it was over 100 µM.
